Experimental data taken from patent publication US20100041089A1, “IMPROVED METHOD FOR DETECTING CHEMICAL […]” (priority 2006, published 2010).

Test system: yeast genes (expressed mRNA)
Experiment: DNA chip measurement of expressed mRNA of yeast genes after culture with a toxic chemical substance
Assay type: cell-based, Saccharomyces cerevisiae S288C
Conditions: for level of expressed mRNA in the presence of chemical substance / level in the absence of chemical substance: cultured two hours with the chemical substance; for The level of expressed mRNA in the presence of chemical substance/The level of expressed mRNA in the absence of chemical substance: cultured two hours with substance
Procedure: Yeast (Saccharomyces cerevisiae S288C (a SUC2mal mel gap2 CUP1)) were cultured at 25° C. on YPD medium (yeast extract 1%, polypeptone 2%, glucose 2%). One of toxic chemical substances was added to the cell at logarithmic growth phase, and the cell was further cultured for two hours. Cell was cultured without any chemical substance in the same condition, and was used as a control. Concentrations of the chemical substances were defined to inhibit the growth of the yeast but not lead to death.
After the completion of cultivation, the culture was centrifuged to collect the cells. To the cells, sodium acetate buffer (50 mM sodium acetate, 10 mM EDTA, 1% SDS) was added, and the mixture was shaken at 65° C. for five minutes, followed by returning to room temperature, and obtaining the supernatant, which procedure was repeated two times. To the supernatant, ½ amount of a solution of phenol/chloroform (1:1) was added, and the mixture was centrifuged to give a supernatant, an equal amount of chloroform was added, and the mixture was centrifuged to give a supernatant. To the supernatant, an equal amount of isopropanol containing 0.3 M sodium acetate was added, and the mixture was allowed to stand at room temperature for 30 minutes, after which the mixture was centrifuged to give sediment of the whole RNAs. Seventy % ethanol was added to the sediment, and the mixture was again centrifuged to give sediment, which was then dried and dissolved in water. mRNA was isolated from the whole RNAs as followings. In view of the fact that a poly A chain is attached to the 3′ terminus of mRNA, a polynucleotide having a poly T structure which was immobilized on the surface of latex beads was used to trap the mRNA, and then the mRNA was washed and eluted with spine column (Oligotex-dT30<Super>mRNA Purification Kit, Takara). Reverse transcription of the mRNA was conducted with a reverse transcriptase (Super Script II Reverse Transcriptase; catalogue No. 18064-014, GibcoBRL) using fluorescence-labeled nucleotides to give cDNAs that were introduced with Cy3-dUTP or Cy5-dUTP during the reverse transcription.
The labeled cDNAs were dissolved in TE buffer (10 mM Tris-HCl/1 mM EDTA, pH 8.0), and the solution was dropped on the DNA chip containing the whole genes of yeast (DNA Chip Research Inc. Japan) so that the cDNAs were hybridized on the DNA chip at 65° C. for over 12 hours. The fluoresces intensity of the DNA chip was read with a scanner, and the ratio relative to the fluorescence intensity resulting from the absence of chemical substance was estimated as the following, which is shown in Tables 1 to 9.
In the Tables, “Intensity” indicated in the rightmost column is a value of the level of expressed mRNA of each gene in control cells as divided by the average level of the expressions of the whole genes. A gene of which mRNA level is lower in control, and is higher in cases of addition of chemical substance, is especially useful in the detection of toxic substances.
Here, when a ratio of an amount of mRNA expressed in the presence of the chemical substance to an amount of mRNA expressed in the absence of the chemical substance is two or more, then it is considered significant.

[Cl][Pb][Cl] [(4), PbCl2]
level of expressed mRNA in the presence of chemical substance / level in the absence of chemical substance (yeast gene YNL058C): 1.7
level of expressed mRNA in the presence of chemical substance / level in the absence of chemical substance (yeast gene YNL063W): 1.4
The level of expressed mRNA in the presence of chemical substance/The level of expressed mRNA in the absence of chemical substance (yeast gene YNL074C): 1.2
The level of expressed mRNA in the presence of chemical substance/The level of expressed mRNA in the absence of chemical substance (yeast gene YNL092W): 1.8
The level of expressed mRNA in the presence of chemical substance/The level of expressed mRNA in the absence of chemical substance (yeast gene YNL115C): 1.4
The level of expressed mRNA in the presence of chemical substance/The level of expressed mRNA in the absence of chemical substance (yeast gene YNL156C): 1.3
level of expressed mRNA in the presence of chemical substance / level in the absence of chemical substance (yeast gene YNL176C): 1.0
level of expressed mRNA in the presence of chemical substance / level in the absence of chemical substance (yeast gene YNL194C): 15.2
level of expressed mRNA in the presence of chemical substance / level in the absence of chemical substance (yeast gene YNL200C): 2.0
The level of expressed mRNA in the presence of chemical substance/The level of expressed mRNA in the absence of chemical substance (yeast gene YNL234W): 1.8
level of expressed mRNA in the presence of chemical substance / level in the absence of chemical substance (yeast gene YNL253W): 1.0
level of expressed mRNA in the presence of chemical substance / level in the absence of chemical substance (yeast gene YNL276C): 0.3
The level of expressed mRNA in the presence of chemical substance/The level of expressed mRNA in the absence of chemical substance (yeast gene YNL281W): 1.4
The level of expressed mRNA in the presence of chemical substance/The level of expressed mRNA in the absence of chemical substance (yeast gene YNL305C): 1.4
level of expressed mRNA in the presence of chemical substance / level in the absence of chemical substance (yeast gene YNR051C): 0.6
The level of expressed mRNA in the presence of chemical substance/The level of expressed mRNA in the absence of chemical substance (yeast gene YNR068C): 2.6
level of expressed mRNA in the presence of chemical substance / level in the absence of chemical substance (yeast gene YOL026C): 1.4
The level of expressed mRNA in the presence of chemical substance/The level of expressed mRNA in the absence of chemical substance (yeast gene YOL032W): 1.3
The level of expressed mRNA in the presence of chemical substance/The level of expressed mRNA in the absence of chemical substance (yeast gene YOL036W): 0.8
The level of expressed mRNA in the presence of chemical substance/The level of expressed mRNA in the absence of chemical substance (yeast gene YOL047C): 2.5
The level of expressed mRNA in the presence of chemical substance/The level of expressed mRNA in the absence of chemical substance (yeast gene YOL071W): 2.0
The level of expressed mRNA in the presence of chemical substance/The level of expressed mRNA in the absence of chemical substance (yeast gene YOL082W): 2.1
The level of expressed mRNA in the presence of chemical substance/The level of expressed mRNA in the absence of chemical substance (yeast gene YOL083W): 2.8
The level of expressed mRNA in the presence of chemical substance/The level of expressed mRNA in the absence of chemical substance (yeast gene YOL117W): 1.4
The level of expressed mRNA in the presence of chemical substance/The level of expressed mRNA in the absence of chemical substance (yeast gene YOL131W): 1.0
The level of expressed mRNA in the presence of chemical substance/The level of expressed mRNA in the absence of chemical substance (yeast gene YOL150C): 0.9
The level of expressed mRNA in the presence of chemical substance/The level of expressed mRNA in the absence of chemical substance (yeast gene YOL162W): 1.4
The level of expressed mRNA in the presence of chemical substance/The level of expressed mRNA in the absence of chemical substance (yeast gene YOR019W): 4.7
level of expressed mRNA in the presence of chemical substance / level in the absence of chemical substance (yeast gene YOR022C): 1.2
level of expressed mRNA in the presence of chemical substance / level in the absence of chemical substance (yeast gene YOR087W): 1.3
level of expressed mRNA in the presence of chemical substance / level in the absence of chemical substance (yeast gene YOR138C): 0.8
The level of expressed mRNA in the presence of chemical substance/The level of expressed mRNA in the absence of chemical substance (yeast gene YOR197W): 1.4
level of expressed mRNA in the presence of chemical substance / level in the absence of chemical substance (yeast gene YOR253W): 1.4
level of expressed mRNA in the presence of chemical substance / level in the absence of chemical substance (yeast gene YOR267C): 0.9
level of expressed mRNA in the presence of chemical substance / level in the absence of chemical substance (yeast gene YOR325W): 0.3
level of expressed mRNA in the presence of chemical substance / level in the absence of chemical substance (yeast gene YPL005W): 1.0
The level of expressed mRNA in the presence of chemical substance/The level of expressed mRNA in the absence of chemical substance (yeast gene YPL087W): 7.3
level of expressed mRNA in the presence of chemical substance / level in the absence of chemical substance (yeast gene YPL150W): 0.9
level of expressed mRNA in the presence of chemical substance / level in the absence of chemical substance (yeast gene YPL152W): 1.8
level of expressed mRNA in the presence of chemical substance / level in the absence of chemical substance (yeast gene YPL168W): 1.4
level of expressed mRNA in the presence of chemical substance / level in the absence of chemical substance (yeast gene YPL180W): 0.6
level of expressed mRNA in the presence of chemical substance / level in the absence of chemical substance (yeast gene YPL188W): 1.0
The level of expressed mRNA in the presence of chemical substance/The level of expressed mRNA in the absence of chemical substance (yeast gene YPL196W): 1.7
The level of expressed mRNA in the presence of chemical substance/The level of expressed mRNA in the absence of chemical substance (yeast gene YPL206C): 1.9
level of expressed mRNA in the presence of chemical substance / level in the absence of chemical substance (yeast gene YPL221W): 1.8
The level of expressed mRNA in the presence of chemical substance/The level of expressed mRNA in the absence of chemical substance (yeast gene YPL222W): 1.3
level of expressed mRNA in the presence of chemical substance / level in the absence of chemical substance (yeast gene YPL225W): 1.6
The level of expressed mRNA in the presence of chemical substance/The level of expressed mRNA in the absence of chemical substance (yeast gene YPR023C): 0.8
level of expressed mRNA in the presence of chemical substance / level in the absence of chemical substance (yeast gene YPR049C): 1.0
level of expressed mRNA in the presence of chemical substance / level in the absence of chemical substance (yeast gene YPR146C): 0.9
level of expressed mRNA in the presence of chemical substance / level in the absence of chemical substance (yeast gene YPR148C): 1.3
The level of expressed mRNA in the presence of chemical substance/The level of expressed mRNA in the absence of chemical substance (yeast gene YPR151C): 4.1
level of expressed mRNA in the presence of chemical substance / level in the absence of chemical substance (yeast gene YPR172W): 1.2
